Source: ChEMBL document CHEMBL1140260, “Synthesis and SAR of diazepine and thiazepine TACE and MMP inhibitors” (Bioorg Med Chem Lett, 2005)

Legend:
Collagenase 3 = Collagenase 3 (Homo sapiens, UniProt P45452)
Description: Inhibitory concentration against Matrix metalloprotease-13 at 1 uM

[1] = molecular target: Disintegrin and metalloproteinase domain-containing protein 17 (Homo sapiens, UniProt P78536); test: Inhibitory concentration against TNF-alpha converting enzyme at 1 uM
Interstitial collagenase = molecular target: T1, Interstitial collagenase (Homo sapiens, UniProt P03956); test: (§1) Inhibitory concentration against matrix metalloprotease-1 at 1 uM
T1 sequence (P03956 whole entry): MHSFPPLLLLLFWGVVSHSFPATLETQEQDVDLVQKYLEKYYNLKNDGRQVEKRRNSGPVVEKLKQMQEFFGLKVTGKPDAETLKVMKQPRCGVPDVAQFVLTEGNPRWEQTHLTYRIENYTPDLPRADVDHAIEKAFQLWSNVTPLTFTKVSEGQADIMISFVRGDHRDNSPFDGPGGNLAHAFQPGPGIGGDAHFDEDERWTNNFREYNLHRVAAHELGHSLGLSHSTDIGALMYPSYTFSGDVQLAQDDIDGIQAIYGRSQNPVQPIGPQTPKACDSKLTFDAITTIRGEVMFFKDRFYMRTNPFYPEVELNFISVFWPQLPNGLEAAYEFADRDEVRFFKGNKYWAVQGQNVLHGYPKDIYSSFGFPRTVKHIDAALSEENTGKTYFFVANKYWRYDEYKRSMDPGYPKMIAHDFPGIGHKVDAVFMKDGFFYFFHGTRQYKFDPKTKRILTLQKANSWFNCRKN

Mus musculus [2] = test: Percent inhibition ofTNF-alpha release 1 hr after oral dosing at 25 mpk; assay type: functional
THP-1 [3] = test: Percent inhibition against LPS stimulated THP-1 cellular assay at 3 uM; assay type: functional; settings: Homo sapiens
[4] = molecular target: T2, Interstitial collagenase (Homo sapiens) (UniProt P03956); test: Percent inhibition against matrix metalloprotease-1 at 1 uM
T2 sequence (whole entry): T1 sequence (P03956 whole entry)

Mus musculus [5] = test: Percent inhibition ofTNF-alpha release 1 hr after oral dosing at 50 mpk; assay type: functional
[6] = molecular target: T2, Interstitial collagenase (Homo sapiens); test: as §1
Mus musculus [7] = test: Percent inhibition ofTNF-alpha release 6 hr after oral dosing at 50 mpk; assay type: functional
THP-1 [8] = test: Percent inhibition against LPS stimulated THP-1 cellular assay at 1 uM; assay type: functional; settings: Homo sapiens
THP-1 [9] = test: Percent inhibition against LPS stimulated THP-1 cell assay at 3 uM; assay type: functional; settings: Homo sapiens
[10] = Volume of distribution of compound in mice; assay type: ADME, organism-based; settings: mouse, in vivo
Mus musculus [11] = test: Percent reduction induced by compound in the mouse collagen induced arthritis model after 35 days of peroral dosing at 20 mpk, twice daily; assay type: functional
Mus musculus [12] = test: Half life of compound in mice after i.p. administration at 10 mg/kg; assay type: functional, organism-based; design: dose 10 mg/kg
Mus musculus [13] = test: Oral bioavailability of compound in mice; assay type: functional, organism-based
Mus musculus [14] = species on record: Mus musculus; test: Plasma clearance of compound in mice plasma; assay type: functional, organism-based
Mus musculus [15] = test: Half life of compound in mice after i.v. administration at 5 mg/kg; assay type: functional, organism-based; design: dose 5 mg/kg
Mus musculus [16] = test: Half life of compound in mice after p.o. administration at 50 mg/kg

Sequence of Disintegrin and metalloproteinase domain-containing protein 17 (P78536 whole entry, the tested form may be a part): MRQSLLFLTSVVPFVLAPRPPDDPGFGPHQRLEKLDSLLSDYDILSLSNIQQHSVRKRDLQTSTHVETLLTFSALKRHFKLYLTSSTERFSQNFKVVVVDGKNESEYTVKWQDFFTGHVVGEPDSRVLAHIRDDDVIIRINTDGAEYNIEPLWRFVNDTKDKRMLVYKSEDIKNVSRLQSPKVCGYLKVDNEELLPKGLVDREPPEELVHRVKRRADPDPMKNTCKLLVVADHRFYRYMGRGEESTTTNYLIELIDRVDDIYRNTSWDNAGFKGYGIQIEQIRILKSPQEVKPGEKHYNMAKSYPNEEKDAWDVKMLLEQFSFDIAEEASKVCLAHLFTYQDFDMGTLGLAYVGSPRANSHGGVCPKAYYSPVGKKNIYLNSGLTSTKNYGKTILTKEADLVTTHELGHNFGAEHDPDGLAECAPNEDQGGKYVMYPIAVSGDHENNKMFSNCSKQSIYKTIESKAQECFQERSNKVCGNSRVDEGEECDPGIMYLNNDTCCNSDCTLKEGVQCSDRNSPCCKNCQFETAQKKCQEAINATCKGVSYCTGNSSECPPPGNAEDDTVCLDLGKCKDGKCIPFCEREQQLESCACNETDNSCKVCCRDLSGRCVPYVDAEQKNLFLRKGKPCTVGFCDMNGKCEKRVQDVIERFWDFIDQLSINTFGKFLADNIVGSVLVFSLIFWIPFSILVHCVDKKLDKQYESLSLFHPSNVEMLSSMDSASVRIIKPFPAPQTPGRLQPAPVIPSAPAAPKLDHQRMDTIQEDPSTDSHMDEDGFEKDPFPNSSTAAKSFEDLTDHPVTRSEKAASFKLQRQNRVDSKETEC

Row | SMILES | IC50 (Collagenase 3) [µM] | IC50 [1] [µM] | IC50 (Interstitial collagenase) [µM] | inhibition at 3 µM (THP-1 [3]) [%] | inhibition in vivo at 50 mg/kg (Mus musculus [5]) [%] | also measured
1 | CC#CCOc1ccc(S(=O)(=O)N2CCCNCC2C(=O)NO)cc1 (stereo not drawn) | 0.225 | 0.011 | 0.576 | 43 |  | inhibition in vivo at 25 mg/kg (Mus musculus [2]): 4%
2 | CC#CCOc1ccc(S(=O)(=O)N2CCCN(Cc3ccccc3)CC2C(=O)NO)cc1 (stereo not drawn) | 0.052 | 0.061 | 0.212 | 41 |  | 
3 | CC#CCOc1ccc(S(=O)(=O)N2CCCN(S(=O)(=O)c3ccccc3)CC2C(=O)NO)cc1 (stereo not drawn) | 0.088 | 0.068 |  | 62 |  | inhibition [4]: 39%; inhibition in vivo at 25 mg/kg (Mus musculus [2]): 46%
4 | CC#CCOc1ccc(S(=O)(=O)N2CCCN(S(C)(=O)=O)CC2C(=O)NO)cc1 (stereo not drawn) | 0.128 | 0.005 |  | 71 |  | inhibition [4]: 40%; inhibition in vivo at 25 mg/kg (Mus musculus [2]): 35%
5 | CC#CCOc1ccc(S(=O)(=O)N2CCCS(=O)(=O)CC2C(=O)NO)cc1 (stereo not drawn) | 0.311 | 0.028 | 0.334 |  | 77 | 
6 | CC#CCOc1ccc(S(=O)(=O)N2CCS(=O)(=O)CCC2C(=O)NO)cc1 (stereo not drawn) | 0.008 | 0.019 | 0.114 | 92 | 94 | 
7 | CC#CCOc1ccc(S(=O)(=O)N2CCCN(C(=O)CCCN(C)C)CC2C(=O)NO)cc1 (stereo not drawn) | 0.395 | 0.075 |  | 33 |  | inhibition [4]: 19%
8 | CC#CCOc1ccc(S(=O)(=O)N2CCCN(C(=O)c3cccs3)CC2C(=O)NO)cc1 (stereo not drawn) | 0.142 | 0.01 |  | 41 |  | 
9 | CC#CCOc1ccc(S(=O)(=O)N2CCCN(C)CC2C(=O)NO)cc1 (stereo not drawn) | 0.18 | 0.024 |  | 42 |  | inhibition [6]: 36%
10 | CC#CCOc1ccc(S(=O)(=O)N2CCCN(S(=O)(=O)CCC)CC2C(=O)NO)cc1 (stereo not drawn) | 0.14 | 0.03 | 1.14 | 74 |  | inhibition in vivo at 25 mg/kg (Mus musculus [2]): 0%
11 | CC#CCOc1ccc(S(=O)(=O)N2CCSCCC2C(=O)NO)cc1 (stereo not drawn) | 0.011 |  | 0.171 |  | 70 | inhibition in vivo at 50 mg/kg (Mus musculus [7]): 41%
12 | CC#CCOc1ccc(S(=O)(=O)N2CCN(CC)CCC2C(=O)NO)cc1 (stereo not drawn) | 0.017 | 0.037 | 0.285 |  |  | inhibition at 1 µM (THP-1 [8]): 57%
13 | CC#CCOc1ccc(S(=O)(=O)N2CCN(C(=O)c3ccccc3)CCC2C(=O)NO)cc1 (stereo not drawn) |  |  |  |  | 35 | inhibition in vivo at 50 mg/kg (Mus musculus [7]): 0%
14 | CC#CCOc1ccc(S(=O)(=O)N2CCN(C(=O)C(C)C)CCC2C(=O)NO)cc1 (stereo not drawn) | 0.009 | 0.023 | 0.142 | 95 |  | 
15 | CC#CCOc1ccc(S(=O)(=O)N2CCCN(C(C)=O)CC2C(=O)NO)cc1 (stereo not drawn) | 0.305 | 0.004 |  | 74 |  | inhibition in vivo at 25 mg/kg (Mus musculus [2]): 10%
16 | CC#CCOc1ccc(S(=O)(=O)N2CCCN(C(=O)NCCCCCC)CC2C(=O)NO)cc1 (stereo not drawn) | 0.307 | 0.014 |  | 36 |  | inhibition [4]: 34%
17 | CC#CCOc1ccc(S(=O)(=O)N2CCCN(C(=O)OC(C)(C)C)CC2C(=O)NO)cc1 (stereo not drawn) | 0.363 | 0.035 |  |  |  | inhibition [4]: 26%; inhibition at 3 µM (THP-1 [9]): 13%
18 | CC#CCOc1ccc(S(=O)(=O)N2CCCSCC2C(=O)NO)cc1 (stereo not drawn) | 0.036 | 0.02 | 0.408 | 80 | 24 | 
19 | CC#CCOc1ccc(S(=O)(=O)N2CCNCCC2C(=O)NO)cc1 (stereo not drawn) | 0.032 |  |  |  | 97 | Vd [10]: 2.49 L/kg; Reduction (Mus musculus [11]): 56%; inhibition in vivo at 50 mg/kg (Mus musculus [7]): 62%; T1/2 (Mus musculus [12]): 2.64 h; bioavailability (Mus musculus [13]): 18%; CL (mL.min-1.kg-1) (Mus musculus [14]): 64.3; T1/2 (Mus musculus [15]): 1.43 h; T1/2 (Mus musculus [16]): 0.86 h
20 | CC#CCOc1ccc(S(=O)(=O)N2CCN(C(=O)COC)CCC2C(=O)NO)cc1 (stereo not drawn) | 0.031 | 0.015 | 0.277 | 79 |  | 
21 | CC#CCOc1ccc(S(=O)(=O)N2CCN(C(=O)CC)CCC2C(=O)NO)cc1 (stereo not drawn) | 0.02 | 0.019 | 0.207 |  |  | inhibition at 1 µM (THP-1 [8]): 63%
22 | CC#CCOc1ccc(S(=O)(=O)N2CCN(C(=O)OC(C)(C)C)CCC2C(=O)NO)cc1 (stereo not drawn) |  |  |  |  | 88 | inhibition in vivo at 50 mg/kg (Mus musculus [7]): 43%
23 | CC#CCOc1ccc(S(=O)(=O)N2CCCN(C(=O)CN)CC2C(=O)NO)cc1 (stereo not drawn) | 1.06 | 0.012 | 3.03 | 62 |  | 
24 | CC#CCOc1ccc(S(=O)(=O)N2CCCN(C(=O)CNC(=O)OC(C)(C)C)CC2C(=O)NO)cc1 (stereo not drawn) | 0.446 | 0.007 | 4.58 | 71 |  | inhibition in vivo at 25 mg/kg (Mus musculus [2]): 68%
25 | CC#CCOc1ccc(S(=O)(=O)N2CCN(Cc3ccccc3)CCC2C(=O)NO)cc1 (stereo not drawn) |  |  |  |  | 17 | inhibition in vivo at 50 mg/kg (Mus musculus [7]): 0%
26 | CC#CCOc1ccc(S(=O)(=O)N2CCN(C)CCC2C(=O)NO)cc1 (stereo not drawn) |  |  |  |  | 32 | inhibition in vivo at 50 mg/kg (Mus musculus [7]): 39%
